{"source": "patent US6573299B1", "about": "“Method and compositions for treatment of the aging eye” (Advanced Medical Instruments, priority 1999, dated 2003)", "origin": "cited, not measured here", "key": {"[1]": {"tested_on": "nitric oxide synthase"}, "[2]": {"assay": "not given", "remark": "listed apart in the source"}, "[3]": {"tested_on": "tumor necrosis factor-alpha (TNF-alpha) and nitric oxide production"}, "[4]": {"tested_on": "retinal ganglion cells", "details": "treated animals"}, "[5]": {"details": "long term high intake, greater than 1,000 mg/day"}, "[6]": {"details": "diet of 6 mg of lutein per day"}}}
{"molecule": "Zinc", "values": [{"measurement": "loss of visual acuity in patients with AMD", "setting": "clinical trial, high-dose zinc supplementation", "result": "reduction in the loss of visual acuity"}, {"measurement": "AMD", "setting": "study published in 1988", "result": "improved AMD"}, {"measurement": "nitric oxide synthase inhibition", "setting": "[1]", "result": "very potent inhibitor"}]}
{"molecule": "CCCCCCCCCCCCCCCC(=O)OC[C@H](O)[C@H]1OC(=O)C(O)=C1O", "note": "[ascorbyl palmitate]", "values": [{"measurement": "erythema from UV injured skin", "setting": "[2]; 5% lotion", "result": "effective in reducing erythema"}, {"measurement": "erythema after exposure to UVB", "setting": "[2]; skin pretreated topically, lecithin gel base, compared to untreated skin", "result": "decreased erythema"}]}
{"molecule": "Oc1ccc(C=Cc2cc(O)cc(O)c2)cc1", "note": "[Resveratrol, 3,5,4′-trihydroxystilbene]", "values": [{"measurement": "TNF-alpha and nitric oxide production", "setting": "[3]", "result": "inhibit tumor necrosis factor-alpha (TNF-alpha) and nitric oxide production"}, {"measurement": "nitric oxide synthase inhibition", "setting": "[1]", "result": "suppresses nitric oxide synthase"}]}
{"molecule": "N=C(N)NN", "note": "[aminoguanidine]", "values": [{"measurement": "loss of retinal ganglion cells", "setting": "[4]", "result": "reduction in the loss of retinal ganglion cells"}]}
{"molecule": "O=C1O[C@H]([C@@H](O)CO)C(O)=C1O", "note": "[ascorbic acid]", "values": [{"measurement": "risk of cataracts", "setting": "[5]", "result": "substantially reduced risk of cataracts"}]}
{"molecule": "CC1=C[C@H](O)CC(C)(C)[C@H]1/C=C/C(C)=C/C=C/C(C)=C/C=C/C=C(C)/C=C/C=C(C)/C=C/C1=C(C)C[C@@H](O)CC1(C)C", "note": "[lutein]", "values": [{"measurement": "lower prevalence of AMD", "setting": "[6]", "result": 43, "unit": "%"}]}
